SMILES strings stand for the structures. Bounds are passed on as bounds.

The target in this experiment is EGFR (human) (UniProt P00533). To be noted: a431.
Chain of EGFR (human) (P00533 whole entry, looked up): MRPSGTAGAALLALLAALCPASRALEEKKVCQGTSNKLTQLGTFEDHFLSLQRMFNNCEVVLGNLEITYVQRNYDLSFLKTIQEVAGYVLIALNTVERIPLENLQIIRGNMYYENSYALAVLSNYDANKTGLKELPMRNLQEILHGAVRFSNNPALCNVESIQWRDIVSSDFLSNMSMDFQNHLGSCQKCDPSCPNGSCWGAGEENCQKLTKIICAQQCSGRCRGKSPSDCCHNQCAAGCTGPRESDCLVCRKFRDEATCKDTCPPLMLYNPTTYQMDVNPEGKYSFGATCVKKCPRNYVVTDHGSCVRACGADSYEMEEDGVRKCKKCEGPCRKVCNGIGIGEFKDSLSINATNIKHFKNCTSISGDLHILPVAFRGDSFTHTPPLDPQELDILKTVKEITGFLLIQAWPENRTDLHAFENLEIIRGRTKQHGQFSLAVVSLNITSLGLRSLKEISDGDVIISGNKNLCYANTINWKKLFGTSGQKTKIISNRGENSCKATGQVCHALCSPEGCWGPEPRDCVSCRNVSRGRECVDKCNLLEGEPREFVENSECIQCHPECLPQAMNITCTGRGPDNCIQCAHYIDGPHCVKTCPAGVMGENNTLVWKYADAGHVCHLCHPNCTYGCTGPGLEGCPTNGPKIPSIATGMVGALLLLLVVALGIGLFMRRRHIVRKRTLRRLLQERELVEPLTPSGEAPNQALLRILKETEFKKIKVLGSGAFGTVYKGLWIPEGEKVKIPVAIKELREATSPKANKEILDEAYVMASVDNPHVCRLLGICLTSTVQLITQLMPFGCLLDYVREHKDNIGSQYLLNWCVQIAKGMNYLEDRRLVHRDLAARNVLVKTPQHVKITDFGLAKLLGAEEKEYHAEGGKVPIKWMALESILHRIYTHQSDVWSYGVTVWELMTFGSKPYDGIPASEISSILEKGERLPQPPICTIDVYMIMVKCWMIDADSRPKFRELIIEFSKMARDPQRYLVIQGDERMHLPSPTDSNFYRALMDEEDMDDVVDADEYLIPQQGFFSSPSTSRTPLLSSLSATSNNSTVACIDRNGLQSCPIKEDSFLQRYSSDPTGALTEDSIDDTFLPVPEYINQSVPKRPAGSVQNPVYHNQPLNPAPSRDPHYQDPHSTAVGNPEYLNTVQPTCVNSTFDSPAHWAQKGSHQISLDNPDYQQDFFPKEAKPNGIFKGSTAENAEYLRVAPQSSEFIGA
As to `Cc1nc2cc3ncc(-c4cccs4)nc3cc2n1C`, the half-inhibitory concentration (IC50) – broadly, the concentration needed to halve the response being measured – was over 30 µM.

`Cc1cc2ncc(-c3cc[cH-]c3)nc2cc1C.[Fe+2].c1cc[cH-]c1` yielded an IC50 of over 30 µM.

Molecule `COc1cc2ncc(-c3ccccc3)nc2cc1OC` gave an IC50 of over 100 µM.

As to `Cc1cc2ncc(-c3ccccc3)nc2cc1C`, the IC50 was over 100 µM.

As to `c1ccc(-c2cnc3cc4ccccc4cc3n2)cc1`, the half-inhibitory concentration (IC50) is over 100 µM.

With `Cc1nc2cc3nc(-c4cc[cH-]c4)cnc3cc2n1C.[Fe+2].c1cc[cH-]c1`, the IC50 was over 30 µM.

The molecule `Cc1nc2cc3nc(-c4cccs4)cnc3cc2n1C` displayed an IC50 of over 30 µM.

`Cc1nc2cc3ncc(-c4ccccc4)nc3cc2n1C` yielded an IC50 of over 30 µM.

`Cc1nc2cc3nc(-c4ccccc4)cnc3cc2n1C` had an IC50 of over 30 µM.

With `Cc1cc2ncc(-c3cccs3)nc2cc1C`, the IC50 was over 30 µM.

Source of the values: the Kinase Knowledgebase extract (Sharma et al. 2016).
